Consider four molecules from patent US20260274904A1, “ANTIMICROBIAL NCR2 PEPTIDES” (Donald Danforth Plant Science Center, priority 2019, published 2026).

≈ marks a conversion by molar mass, not a printed value. Entries after “also recorded” stand apart in the source; their conditions may differ. Read-outs that look alike come from different tables or passages of the source. Where a SMILES comes first, the peptide text is derived from it.

The nature of assay [1]: Protein-phospholipid overlay assay (PIP Strips). As to conditions: protein-lipid overlay, 1 μg/ml peptide, 100 pmol lipid per spot.
Protocol: (§1) Briefly, lipid strips were blocked with 10 mL of blocking buffer, PBS-T/3% fat free BSA for 12-16 h at 4° C. with gentle agitation. […] After hybridization, protein solution was discarded and the strips were then washed with PBS-T three times with gentle agitation for 20 minutes each for 1 hour at room temperature. […] The lipid strips were washed with PBS-T two times with gentle agitation, for 15 minutes each wash, at room temperature. HRP-conjugated Mouse Anti-Rabbit IgG secondary antibody (GenScript Cat no A01827) diluted 1:4000 in blocking buffer was added to the lipid strips and incubated for 60 minutes at 4° C. After two washes with PBS-T, chemiluminescence was detected using SuperSignal® West Pico PLUS Sensitivity substrate kit (Thermo Scientific, Cat no: 34080 following the manufacturer's protocol.
The subject of assay [2] is Botrytis cinerea. As to conditions: for antifungal activity compared with the antifungal activity of NCR2 monomer: against B. cinerea.
Assay [3] relates to Phytophthora capsici LT263.
The test system of assay [4] is Botrytis cinerea. Briefly: Detached lettuce leaf infection assay (in planta antifungal activity). It counts as in vivo. The conditions noted are these: detached iceberg lettuce leaves, peptide 3, 6, and 12 μM drop inoculated, 48 hours.
The nature of assay [5]: Protein-phospholipid overlay assay (PIP Strips). As to conditions: protein-lipid overlay, 1 μg/ml peptide, 100 pmol lipid per spot. This is another data set of the same source.
Protocol: as §1
A short description of assay [6]: Protein-phospholipid overlay assay (PIP Strips). As to conditions: protein-lipid overlay, 1 μg/ml peptide, 100 pmol lipid per spot. This is another data set of the same source.
Protocol: as §1
A short description of assay [7]: Protein-phospholipid overlay assay (PIP Strips). The conditions noted are these: protein-lipid overlay, 1 μg/ml peptide, 100 pmol lipid per spot. This is another data set of the same source.
Protocol: as §1
Assay [8] is described as follows: Protein-phospholipid overlay assay (PIP Strips). As to conditions: protein-lipid overlay, 1 μg/ml peptide, 100 pmol lipid per spot. The source holds these as a separate data set.
Protocol: as §1
Assay [9] relates to P. capsici. Nature of the assay: Resazurin cell viability assay. The assay is classed as cell-based, Phytophthora capsici.
Assay [10] can be described thus: Protein-phospholipid overlay assay (PIP Strips). The conditions noted are these: protein-lipid overlay, 1 μg/ml peptide, 100 pmol lipid per spot. The source holds these as a separate data set.
Protocol: as §1
Assay [11] can be described thus: Protein-phospholipid overlay assay (PIP Strips). As to conditions: protein-lipid overlay, 1 μg/ml peptide, 100 pmol lipid per spot. The source holds these as a separate data set.
Protocol: as §1
Assay [12] can be described thus: Protein-phospholipid overlay assay (PIP Strips), overall. The conditions noted are these: protein-lipid overlay, 1 μg/ml peptide, 100 pmol lipid per spot.
Protocol: as §1
Assay [13] can be described thus: Protein-phospholipid overlay assay (PIP Strips). As to conditions: protein-lipid overlay, 1 μg/ml peptide, 100 pmol lipid per spot. The source holds these as a separate data set.
Protocol: as §1
For assay [14], the system named is Fusarium graminearum PH-1. It counts as cell-based. As to conditions: F. graminearum, absorbance at 595 nm at 48 hours.
Assay [15] has as its system F. virguliforme.
Assay [16] deals with Fusarium species. The assay is classed as cell-based, Fusarium sp. The conditions noted are these: against F. oxysporum, F. graminearum and F. virguliforme.
Assay [17] concerns F. oxysporum.
Where [18] appears, read: B. cinerea, absorbance at 595 nm at 48 hours.
[19] abbreviates: P. capsici zoospores, absorbance at 595 nm at 48 hours.

`CC[C@H](C)[C@H](NC(=O)[C@H](CCCNC(=N)N)NC(=O)[C@H](CCCNC(=N)N)NC(=O)[C@H](CCCNC(=N)N)NC(=O)[C@@H](NC(=O)[C@H](CS)NC(=O)[C@H](Cc1ccc(O)cc1)NC(=O)CNC(=O)[C@H](CCCCN)NC(=O)[C@H](CCCNC(=N)N)NC(=O)[C@H](CS)NC(=O)[C@H](CCCNC(=N)N)NC(=O)[C@H](C)NC(=O)[C@H](CCCNC(=N)N)NC(=O)[C@H](Cc1ccc(O)cc1)NC(=O)[C@H](CC(N)=O)NC(=O)[C@H](CCCCN)NC(=O)[C@@H](NC(=O)[C@@H](NC(=O)[C@H](CO)NC(=O)[C@H](CS)NC(=O)[C@@H]1CCCN1C(=O)CNC(=O)[C@H](CCCCN)NC(=O)[C@H](Cc1ccccc1)NC(=O)[C@H](CCCCN)NC(=O)[C@H](Cc1c[nH]cn1)NC(=O)[C@H](CS)NC(=O)[C@@H]1CCCN1C(=O)[C@H](CCCCN)NC(=O)[C@H](CO)NC(=O)[C@H](CC(C)C)NC(=O)[C@H](CCC(N)=O)NC(=O)[C@@H](NC(=O)[C@H](Cc1ccccc1)NC(=O)[C@H](C)N)[C@@H](C)CC)[C@@H](C)CC)C(C)C)C(C)C)C(=O)N[C@@H](CCCNC(=N)N)C(=O)O` [NCR2_V1] (H-AFIQLSKPCHKFKGPCSIVKNYRARCRKGYCVRRRIR-OH): the “binding to PI(3)P” value in assay [1] is on record as “bound tightly; also recorded: greater affinity than the wild-type NCR2 peptide”. In addition, the IC50 – broadly, the point on the concentration scale where inhibition reaches its midpoint – in assay [2] (48 h) is 1500 nM; in assay [3] (48 h) it was 2000 nM. For the same molecule, the values for the MIC in assay [2] (48 h) and in assay [3] (48 h) were 2 to 3 µM and 3 µM (≈ 13.3 µg/mL), respectively. The “size of disease lesions caused by Botrytis cinerea” value in assay [4] is “much smaller lesions; also recorded: effective in reducing the size of disease lesions”; in assay [4] (listed as NCR2 V1) it was “effective in reducing the sizes of disease lesions”. Also, the “binding to PI(3,5)P2” value in assay [5] is on record as “weakly”. The “binding to PI(4)P” value in assay [6] is “bound tightly; also recorded: greater affinity than the wild-type NCR2 peptide”. In addition, the “binding to phosphatidic acid (PA)” value in [7] was “weakly”. In addition, the “binding to PI(5)P” value in [8] is reported as “bound tightly; also recorded: greater affinity than the wild-type NCR2 peptide”. Besides, the “concentration of cell death (resazurin assay)” value (shortened to “concentration of cell death”) in assay [9] was found to be 3 µM. The “binding to PI(3,4,5)P3” value in assay [10] is “No binding”. In assay [11], the “binding to PI(4,5)P2” value is “weakly”. In addition, in assay [12], the “binding to phospholipids (overall)” value is listed as “bind to multiple phospholipids”. The “binding to PI(3,4)P2” value in assay [13] is reported as “weakly”.

On to `CC[C@H](C)[C@H](NC(=O)[C@H](CCCNC(=N)N)NC(=O)[C@H](CCCNC(=N)N)NC(=O)[C@H](CCCNC(=N)N)NC(=O)[C@@H](NC(=O)[C@H](CS)NC(=O)[C@H](Cc1ccc(O)cc1)NC(=O)CNC(=O)[C@H](CCCCN)NC(=O)[C@H](CCCNC(=N)N)NC(=O)[C@H](CS)NC(=O)[C@H](CCCNC(=N)N)NC(=O)[C@H](C)NC(=O)[C@H](CCCNC(=N)N)NC(=O)[C@H](Cc1ccc(O)cc1)NC(=O)[C@H](CC(N)=O)NC(=O)[C@H](CCCCN)NC(=O)[C@@H](NC(=O)[C@@H](NC(=O)[C@H](CO)NC(=O)[C@H](CS)NC(=O)[C@H](CCC(=O)O)NC(=O)[C@H](CCCCN)NC(=O)[C@H](CC(=O)O)NC(=O)[C@H](CO)NC(=O)[C@@H](NC(=O)[C@H](CS)NC(=O)[C@@H]1CCCN1C(=O)[C@H](CCCCN)NC(=O)[C@H](CO)NC(=O)[C@H](CC(C)C)NC(=O)[C@H](CCC(N)=O)NC(=O)[C@@H](NC(=O)[C@H](CS)NC(=O)[C@H](Cc1ccccc1)NC(=O)[C@H](C)N)[C@@H](C)CC)[C@@H](C)CC)[C@@H](C)CC)C(C)C)C(C)C)C(=O)N[C@@H](CCCNC(=N)N)C(=O)N[C@@H](CS)C(=O)O` [NCR2_V2] (H-AFCIQLSKPCISDKECSIVKNYRARCRKGYCVRRRIRC-OH; N-terminus and C-terminus assumed), for which the results for the IC50 in assay [2] (48 h) and in [3] (48 h) were 2000 nM and 3000 nM, respectively. Besides, the MIC (as a rule, the smallest concentration in the dilution series that meets the test's criterion for growth inhibition) in assay [2] (48 h) came out at 3 µM (≈ 13.6 µg/mL); in assay [3] (48 h) it was 6 µM (≈ 27.1 µg/mL). Moreover, in [4], the “size of disease lesions caused by Botrytis cinerea” value is recorded as “much smaller lesions; also recorded: effective in reducing the sizes of disease lesions”. For the same molecule, the “concentration of cell death” value in assay [9] turned out to be 6 µM. Further, the “binding to phospholipids (overall)” value is “not found to bind to any phospholipids; also recorded: does not bind to any Phospholipids” in assay [12] and “does not bind to any phospholipids” in assay [12] (listed as NCR2 V2).

On to “AFIQLSKPCISDKECSIVKNYRARCRKGYCVRRRIRGGKAGKKAPKAFIQLSKPCISDKECSIVKNYRARCRKGYCVRRRIR [NCR2-L2-NCR2]”, for which the results for the 50% inhibitory concentration (IC50) in assay [14], in assay [2] (setting [18]) and in assay [17] were 1000 nM, 750 nM and 300 nM, respectively. Besides, the MIC worked out at 1.5 µM in assay [14], 1.5 µM in assay [2] (setting [18]), 1.5 µM in assay [15] and 0.75 µM in assay [17]. The “antifungal activity compared with the antifungal activity of NCR2 monomer” value in assay [2] is recorded as “significant increase”. Besides, the “increase in the antifungal activity of dimer compared with the monomer” value in assay [16] was “Two-fold increase”.

B1: AFIQLSKPCISDKECSIVKNYRARCRKGYCVRRRIRAPKKVEPAFIQLSKPCISDKECSIVKNYRARCRKGYCVRRRIR (protein)
chain: AFIQLSKPCISDKECSIVKNYRARCRKGYCVRRRIRAPKKVEPAFIQLSKPCISDKECSIVKNYRARCRKGYCVRRRIR
notes: two copies of NCR2 linked in tandem by linker peptide APKKVEP (L1)
Regarding B1, the concentration for half-maximal inhibition (IC50) came to 1000 nM in assay [14], 750 nM in assay [2] (setting [18]), 2000 nM in [3] (setting [19]) and 300 nM in assay [17]. The MIC in [14] is 1.5 µM; in assay [2] (setting [18]), 1.5 µM; in assay [3] (setting [19]) it was 3 µM; in [15] it was 1.5 µM; in [17] it was 0.75 µM. Besides, the “antifungal activity compared with the antifungal activity of NCR2 monomer” value in [2] was “significant increase”. In assay [9], the “concentration of cell death” value is 3 µM. For the same molecule, in assay [16], the “increase in the antifungal activity of dimer compared with the monomer” value was “Two-fold increase”.
